Assays:
[1] = molecular target: T1, Free fatty acid receptor 1 (Homo sapiens, UniProt O14842); assay: Agonist activity at human FFA1 receptor expressed in CHO cells assessed as increase in intracellular calcium flux by Fluo 4AM dye-based FLIPR assay; assay type: functional, cell-based
[2] = molecular target: T1, Free fatty acid receptor 1; assay: Agonist activity at human FFA1 receptor expressed in CHO cells assessed as increase in intracellular calcium flux at 10 uM by Fluo 4AM dye-based FLIPR assay relative to TAK-875; assay type: functional, cell-based
[3] = Octanol/phosphate buffer distribution coefficient, log D of the compound at 100 uM at pH 7.4 after 24 hrs by shake flask method; assay type: physicochemical

T1 sequence (O14842 whole entry): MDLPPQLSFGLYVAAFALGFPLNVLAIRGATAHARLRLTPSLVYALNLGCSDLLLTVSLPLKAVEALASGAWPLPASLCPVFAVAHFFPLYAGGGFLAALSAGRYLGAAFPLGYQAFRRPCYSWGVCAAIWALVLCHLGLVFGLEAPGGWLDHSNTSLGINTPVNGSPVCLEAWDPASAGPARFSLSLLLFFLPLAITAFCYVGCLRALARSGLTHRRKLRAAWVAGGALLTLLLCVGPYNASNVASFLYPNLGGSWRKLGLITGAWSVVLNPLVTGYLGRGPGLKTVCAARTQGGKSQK

Row | EC50 [1] [nM] | Efficacy [2] [%] | logD at 24 h, 100 µM [3] | Compound
1 | 331 | 91 | – | Cc1nc(-c2ccccc2)sc1COc1ccc(S(=O)(=O)CC(=O)O)cc1
2 | 275 | 84 | – | Cc1nc(-c2cccc(F)c2)sc1COc1ccc(S(=O)(=O)CC(=O)O)cc1
3 | 178 | 92 | – | CO/N=C(\COc1ccc(COc2ccc(S(=O)(=O)CC(=O)O)cc2)cc1)c1ccccc1
4 | 457 | 78 | – | N#Cc1ccccc1-c1cccc(COc2ccc(S(=O)(=O)CC(=O)O)cc2)c1
5 | > 1000 | – | – | COc1cc(C)c(-c2cccc(COc3ccc(S(=O)(=O)C(C)(C)C(=O)O)cc3)c2)c(C)c1
6 | > 1000 | – | – | CCC(C(=O)O)S(=O)(=O)c1ccc(OCc2cccc(-c3c(C)cc(OC)cc3C)c2)cc1 (stereo not drawn)
7 | > 1000 | – | – | COc1cc(C)c(-c2cccc(COc3ccc(S(=O)(=O)C4(C(=O)O)CC4)cc3)c2)c(C)c1
8 | 195 | 95 | 3.82 | Cc1cccc(C)c1-c1cccc(COc2ccc(SCC(=O)O)cc2)c1
9 | 234 | 87 | – | COc1cc(C)c(-c2cccc(COc3ccc4c(c3)C(=O)CC4CC(=O)O)c2)c(C)c1 (stereo not drawn)
10 | 195 | 96 | – | COc1ccccc1-c1cccc(COc2ccc(S(=O)(=O)CC(=O)O)cc2)c1
11 | 214 | 82 | – | Cc1cccc(-c2nc(C)c(COc3ccc(S(=O)(=O)CC(=O)O)cc3)s2)c1
12 | 550 | 83 | – | COc1cc(C)c(-c2cccc(COc3ccc4c(c3)C(O)CC4CC(=O)O)c2)c(C)c1 (stereo not drawn)
13 | 363 | 77 | – | Cc1noc(C)c1-c1cccc(COc2ccc(S(=O)(=O)CC(=O)O)cc2)c1C
14 | 214 | 81 | – | Cc1noc(C)c1-c1cc(COc2ccc(S(=O)(=O)CC(=O)O)cc2)ccc1Cl
15 | 129 | 85 | – | Cc1ccc(C)n1-c1cccc(COc2ccc(S(=O)(=O)CC(=O)O)cc2)c1
16 | > 1000 | – | – | COc1cc(C)c(-c2cccc(COc3ccc4c(c3)S(=O)(=O)CC4CC(=O)O)c2)c(C)c1 (stereo not drawn)

Row | EC50 [1] [nM] | Efficacy [2] [%] | logD at 24 h, 100 µM [3] | Compound
17 | 126 | 95 | – | COCCOc1cc(C)c(-c2cccc(COc3ccc(S(=O)(=O)CC(=O)O)cc3)c2)c(C)c1
18 | 269 | 82 | – | Cc1noc(C)c1-c1cccc(COc2ccc(S(=O)(=O)CC(=O)O)cc2)c1
19 | 550 | 75 | – | Cc1nc(-c2ccccc2F)sc1COc1ccc(S(=O)(=O)CC(=O)O)cc1
20 | > 1000 | – | – | Cc1ccccc1-c1ccc(COc2cccc(S(=O)(=O)CC(=O)O)c2)cc1
21 | 191 | 92 | – | Cc1nc(-c2ccc(F)cc2)sc1COc1ccc(S(=O)(=O)CC(=O)O)cc1
22 | > 1000 | – | – | CO/N=C1\CC(CC(=O)O)c2ccc(OCc3cccc(-c4c(C)cc(OC)cc4C)c3)cc21 (stereo not drawn)
23 | 97.7 | 101 | – | O=C(O)CS(=O)(=O)c1ccc(OCc2cccc(Oc3ccccc3)c2)cc1
24 | 123 | 98 | – | COc1cc(C)c(-c2cccc(COc3ccc4c(c3)SCC4CC(=O)O)c2)c(C)c1 (stereo not drawn)
25 | 251 | 85 | – | Cc1nc(-c2cccc(Cl)c2)sc1COc1ccc(S(=O)(=O)CC(=O)O)cc1
26 | 234 | 84 | – | Cc1noc(C)c1-c1ccc(Cl)c(COc2ccc(S(=O)(=O)CC(=O)O)cc2)c1
27 | 74.1 | 101 | 3.18 | CC(C)c1ccccc1-c1cccc(COc2ccc(S(=O)(=O)CC(=O)O)cc2)c1
28 | 427 | 73 | – | Cc1ccc(-c2c(C)noc2C)cc1COc1ccc(S(=O)(=O)CC(=O)O)cc1
29 | > 1000 | – | – | O=C(O)CS(=O)(=O)c1cccc(OCc2ccc(-c3ccccc3)cc2)c1
30 | > 1000 | – | – | COc1cc(C)c(-c2cccc(COc3ccc(S(=O)(=O)C(C)C(=O)O)cc3)c2)c(C)c1 (stereo not drawn)
31 | 257 | 97 | – | O=C(O)CS(=O)(=O)c1ccc(OCc2cccc(-c3ccccc3F)c2)cc1
32 | 170 | 83 | – | Cc1cc(OCCCS(C)(=O)=O)cc(C)c1-c1cccc(COc2ccc(S(=O)(=O)CC(=O)O)cc2)c1

Reference: ChEMBL document CHEMBL4190257, “Discovery of phenylsulfonyl acetic acid derivatives with improved efficacy and safety as potent free fatty acid receptor 1 agonists for the treatment of type 2 diabetes” (Eur J Med Chem, 2017)
